These results are taken from patent publication US9676782B2, “Substituted pyrazolo[1,5-a]pyrazines as negative allosteric modulators of metabotropic glutamate receptor 3” (Vanderbilt University, priority 2014, dated 2017).

For assay [1], the target named is rat mGlu3 (Rattus norvegicus (Rat), UniProt P31422). In words: mGlu3 Ca2+ flux assay. The assay is classed as cell-based. As to conditions: for remaining activity at 30 µM: amplitude of response at 30 μM test compound as % of maximal response to glutamate, read-out: rat mGlu3 Glu max (%). Summed up:
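This calcium mobilization assay used rat mGlu3 cells cultured overnight (37° C., 5% CO2) and read on the FDSS7000 after a 10 minute room-temperature incubation in 20 μL assay buffer. Each of 360 readings per well was divided by its initial value (F/F0). Potency came from fitting normalized responses against log concentration with an unconstrained 4 parameter logistic equation, weighting triplicate points equally.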

For assay [2], the target named is rat mGlu5 (Rattus norvegicus (Rat), UniProt P31424). The assay is described as follows: mGlu5 Ca2+ flux assay. The format is cell-based. As to conditions: for Fold selectivity (mGlu3 vs. mGlu5): ratio of rat mGlu5 EC50 or IC50 to rat mGlu3 IC50; for Emax at 30 µM: read-out: rat mGlu5 Glu max (%). Summed up: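 Ca2+ flux read kinetically (FDSS7000) after overnight culture at 37° C/5% CO2 and a 5 min room-temperature buffer step following dye removal. Signals expressed per well as F/F0 and normalized to peak glutamate response; EC50 fitted by free 4-parameter logistic, three replicates per concentration equally weighted.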
Chain of rat mGlu5 (P31424 21-1203): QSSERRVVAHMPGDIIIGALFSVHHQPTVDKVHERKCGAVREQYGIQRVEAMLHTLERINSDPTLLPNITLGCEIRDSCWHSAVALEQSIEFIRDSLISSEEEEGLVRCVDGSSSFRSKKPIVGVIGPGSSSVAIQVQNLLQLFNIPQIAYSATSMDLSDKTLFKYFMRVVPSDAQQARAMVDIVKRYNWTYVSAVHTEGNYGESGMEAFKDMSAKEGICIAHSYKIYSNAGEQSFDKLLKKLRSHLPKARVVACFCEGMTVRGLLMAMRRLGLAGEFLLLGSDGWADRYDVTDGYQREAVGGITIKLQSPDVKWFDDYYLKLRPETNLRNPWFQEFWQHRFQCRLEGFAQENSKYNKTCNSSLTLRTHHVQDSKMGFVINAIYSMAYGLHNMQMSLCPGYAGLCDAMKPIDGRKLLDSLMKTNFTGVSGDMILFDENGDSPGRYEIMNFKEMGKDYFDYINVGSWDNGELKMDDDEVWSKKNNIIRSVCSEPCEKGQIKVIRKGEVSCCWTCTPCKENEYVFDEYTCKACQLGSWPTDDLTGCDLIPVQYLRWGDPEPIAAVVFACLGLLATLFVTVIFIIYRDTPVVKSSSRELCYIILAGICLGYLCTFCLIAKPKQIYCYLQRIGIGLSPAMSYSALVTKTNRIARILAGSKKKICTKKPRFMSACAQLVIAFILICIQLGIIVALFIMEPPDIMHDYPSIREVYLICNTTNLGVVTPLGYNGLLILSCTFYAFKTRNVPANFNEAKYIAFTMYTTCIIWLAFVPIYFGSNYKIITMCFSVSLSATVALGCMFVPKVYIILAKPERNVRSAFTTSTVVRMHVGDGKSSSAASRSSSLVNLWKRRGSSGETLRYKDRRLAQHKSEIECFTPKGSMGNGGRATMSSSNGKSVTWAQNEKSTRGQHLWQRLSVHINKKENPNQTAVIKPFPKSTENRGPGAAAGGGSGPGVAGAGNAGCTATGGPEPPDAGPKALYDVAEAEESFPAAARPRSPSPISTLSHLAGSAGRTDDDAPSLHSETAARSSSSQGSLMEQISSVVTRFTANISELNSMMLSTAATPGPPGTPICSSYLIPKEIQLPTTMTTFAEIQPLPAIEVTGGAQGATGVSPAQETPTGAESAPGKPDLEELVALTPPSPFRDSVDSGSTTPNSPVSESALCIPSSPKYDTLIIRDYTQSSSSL
Background: Calcium assays in cells follow changes in intracellular calcium, usually with a dye or a luminescent sensor.

Setting [3] is: NAM potency, decrease of glutamate EC80 response, >30,000 = no measurable activity, >10,000 = no plateau, read-out: rat mGlu3 IC50.
The mark [4] stands for this setting: read-out: rat mGlu5 EC50 or IC50.
Setting [5] is: PAM, amplitude of response at 30 μM test compound as % of maximal response to glutamate.

Where two headings read alike, the source gives them in different places.

Chain of rat mGlu3 (P31422 23-879): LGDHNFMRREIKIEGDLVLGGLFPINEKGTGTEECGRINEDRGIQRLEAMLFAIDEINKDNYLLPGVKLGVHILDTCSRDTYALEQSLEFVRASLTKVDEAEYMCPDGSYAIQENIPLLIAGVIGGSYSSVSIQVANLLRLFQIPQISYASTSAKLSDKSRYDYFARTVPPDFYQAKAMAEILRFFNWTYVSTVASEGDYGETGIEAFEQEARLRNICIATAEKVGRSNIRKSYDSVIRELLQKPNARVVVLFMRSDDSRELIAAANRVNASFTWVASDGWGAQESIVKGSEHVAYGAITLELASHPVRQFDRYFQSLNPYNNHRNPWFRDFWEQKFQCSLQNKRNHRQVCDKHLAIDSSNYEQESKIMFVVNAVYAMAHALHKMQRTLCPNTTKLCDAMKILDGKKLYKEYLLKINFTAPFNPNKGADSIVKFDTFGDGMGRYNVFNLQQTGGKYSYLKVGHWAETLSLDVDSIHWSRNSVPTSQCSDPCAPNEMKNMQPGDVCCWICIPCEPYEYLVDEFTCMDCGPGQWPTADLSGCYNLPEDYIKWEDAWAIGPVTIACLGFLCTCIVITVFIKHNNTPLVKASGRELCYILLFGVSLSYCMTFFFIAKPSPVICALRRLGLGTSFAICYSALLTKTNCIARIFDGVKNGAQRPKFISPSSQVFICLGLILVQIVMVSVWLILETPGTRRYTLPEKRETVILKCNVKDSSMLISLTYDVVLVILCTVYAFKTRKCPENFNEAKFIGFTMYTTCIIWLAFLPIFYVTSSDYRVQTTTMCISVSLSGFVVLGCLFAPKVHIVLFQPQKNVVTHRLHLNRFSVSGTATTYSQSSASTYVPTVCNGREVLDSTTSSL

For `Cc1ccc(N2CCn3nc(CNc4ccc(OC(F)F)cc4F)cc3C2=O)nc1` [Compound 144, 2-(((4-(difluoromethoxy)-2-fluorophenyl)amino)methyl)-5-(5-methylpyridin-2-yl)-6,7-dihydropyrazolo[1,5-a]pyrazin-4(5H)-one], in assay [1] (setting [3]), the IC50 (as a rule, the midpoint of a concentration-inhibition curve) turned out to be 1740 nM. The remaining activity at 30 µM in assay [1] turned out to be 5.68%. Also, the “Fold selectivity (mGlu3 vs. mGlu5)” value in assay [2] is greater than 17. Besides, in assay [2] (setting [4]), the concentration for a half-maximal effect (EC50) (usually the concentration needed to bring the measured effect to its halfway point) is greater than 30000 nM.
For `Cc1cccc(NCc2cc3n(n2)CCN(c2ccc(F)cc2)C3=O)n1` [Compound 157, 5-(4-fluorophenyl)-2-(((6-methylpyridin-2-yl)amino)methyl)-6,7-dihydropyrazolo[1,5-a]pyrazin-4(5H)-one], the IC50 in assay [1] (setting [3]) stood at 3210 nM. The remaining activity at 30 µM in assay [1] was -0.19%. The “Fold selectivity (mGlu3 vs. mGlu5)” value in assay [2] is given as greater than 9.3. Besides, in assay [2] (setting [4]), the EC50 was greater than 30000 nM.
Taken in the same sequence, the figures for `COc1cccc(N2CCn3nc(CNc4ccc(OC(F)F)cc4F)cc3C2=O)c1` [Compound 142, 2-(((4-(difluoromethoxy)-2-fluorophenyl)amino)methyl)-5-(3-methoxyphenyl)-6,7-dihydropyrazolo[1,5-a]pyrazin-4(5H)-one] were 863 nM, 1.5%, greater than 34 and greater than 30000 nM.
Taken in the same sequence, the figures for `Cc1ccnc(NCc2cc3n(n2)CCN(c2ccc(F)cc2)C3=O)c1` [Compound 161, 5-(4-fluorophenyl)-2-(((4-methylpyridin-2-yl)amino)methyl)-6,7-dihydropyrazolo[1,5-a]pyrazin-4(5H)-one] were 3750 nM, 1.14%, greater than 8.0 and greater than 30000 nM.
Regarding `COc1ccc(N(C)Cc2cc3n(n2)CCN(c2cccnc2)C3=O)cc1` [Compound 121, 2-(((4-methoxyphenyl)(methyl)amino)methyl)-5-(pyridin-3-yl)-6,7-dihydropyrazolo[1,5-a]pyrazin-4(5H)-one], the IC50 in assay [1] (setting [3]) came out at 4690 nM. Also, the remaining activity at 30 µM in assay [1] was found to be 0.66%. In addition, the “Fold selectivity (mGlu3 vs. mGlu5)” value in assay [2] is recorded as greater than 6.3. Also, the EC50 in assay [2] (setting [4]) was greater than 30000 nM.
Regarding `COc1ccc(N(C)Cc2cc3n(n2)CCN(c2ccc(F)cc2C)C3=O)cc1` [Compound 109, 5-(4-fluoro-2-methylphenyl)-2-(((4-methoxyphenyl)(methyl)amino)methyl)-6,7-dihydropyrazolo[1,5-a]pyrazin-4(5H)-one], in assay [1] (setting [3]), the half-maximal inhibitory concentration (IC50) stood at 1320 nM. Moreover, the remaining activity at 30 µM in assay [1] came to 2.13%. For the same compound, the “Fold selectivity (mGlu3 vs. mGlu5)” value in assay [2] is recorded as greater than 22. Further, in assay [2] (setting [4]), the EC50 was greater than 30000 nM.
Take `O=C1c2cc(CNc3ccccc3F)nn2CCN1c1ccc(F)cc1` [Compound 3, 5-(4-fluorophenyl)-2-(((2-fluorophenyl)amino)methyl)-6,7-dihydropyrazolo[1,5-a]pyrazin-4(5H)-one]: the 50% inhibitory concentration (IC50) in assay [1] (setting [3]) worked out at 944 nM. In assay [1], the remaining activity at 30 µM was determined as 1.73%. The Emax at 30 µM in assay [2] (setting [5]) was determined as 95.7%. The “Fold selectivity (mGlu3 vs. mGlu5)” value in assay [2] worked out at 2.62. Further, the EC50 in assay [2] (setting [4]) worked out at 2470 nM.
On to `CN(Cc1cc2n(n1)CCN(c1ccc(F)cc1)C2=O)c1ccc(F)cc1` [drawing 32 X = NMe], for which the concentration for half-maximal inhibition (IC50) in assay [1] (Table 2 compounds with X = NMe, read-out: mGlu3 IC50) turned out to be 467 nM. For the same compound, the “mGlu3 Glu max” value in assay [1] (Table 2 compounds with X = NMe, response at 30 μM compound as percentage of maximal glutamate response) stood at 1%. Further, the concentration giving a half-maximal response (EC50) in assay [2] (Table 2 compounds with X = NMe, read-out: mGlu5 EC50) was greater than 30000 nM.
`COc1ccc(NC(C)c2cc3n(n2)CCN(c2ccc(F)cc2)C3=O)cc1` (centres unmarked) [Compound 169, 5-(4-Fluorophenyl)-2-(1-((4-methoxyphenyl)amino)ethyl)-6,7-dihydropyrazolo[1,5-a]pyrazin-4(5H)-one]: the concentration for half-maximal inhibition (IC50) in assay [1] (setting [3]) amounted to 7740 nM. For the same compound, the remaining activity at 30 µM in assay [1] was -6.64%. Besides, the “Fold selectivity (mGlu3 vs. mGlu5)” value in assay [2] is greater than 3.8. Besides, the EC50 in assay [2] (setting [4]) is greater than 30000 nM.
On to `C[C@H]1CN(c2ccc(F)cc2)C(=O)c2cc(CNc3ccc(F)c(F)c3)nn21` [Compound 78, (S)-2-(((3,4-difluorophenyl)amino)methyl)-5-(4-fluorophenyl)-7-methyl-6,7-dihydropyrazolo[1,5-a]pyrazin-4(5H)-one], for which the 50% inhibitory concentration (IC50) in assay [1] (setting [3]) stood at 1170 nM. For the same compound, in assay [1], the remaining activity at 30 µM worked out at 1.23%. In assay [2] (setting [5]), the Emax at 30 µM came to 61.6%. Further, the “Fold selectivity (mGlu3 vs. mGlu5)” value in assay [2] was greater than 8.5. For the same compound, the EC50 in assay [2] (setting [4]) is greater than 10000 nM.
Taken in the same sequence, the figures for `CN(Cc1cc2n(n1)CCN(c1ccc(F)cc1)C2=O)c1ccc(C#N)cc1` [Compound 93, 4-(((5-(4-fluorophenyl)-4-oxo-4,5,6,7-tetrahydropyrazolo[1,5-a]pyrazin-2-yl)methyl)(methyl)amino)benzonitrile] were 1130 nM, 1.47%, 57.2%, greater than 8.8 and greater than 10000 nM.
For the compound `CCc1ccc(NCc2cc3n(n2)CCN(c2ccc(F)cc2)C3=O)cc1` [Compound 22, 2-(((4-ethylphenyl)amino)methyl)-5-(4-fluorophenyl)-6,7-dihydropyrazolo[1,5-a]pyrazin-4(5H)-one], the 50% inhibitory concentration (IC50) in assay [1] (setting [3]) was 1550 nM. Moreover, the remaining activity at 30 µM in assay [1] was -11%. The “Fold selectivity (mGlu3 vs. mGlu5)” value in assay [2] is greater than 19. Further, the EC50 in assay [2] (setting [4]) is greater than 30000 nM.
Take `O=C1c2cc(CNc3cccc(OC(F)F)c3)nn2CCN1c1ccc(F)cc1` [Compound 12, 2-(((3-(difluoromethoxy)phenyl)amino)methyl)-5-(4-fluorophenyl)-6,7-dihydropyrazolo[1,5-a]pyrazin-4(5H)-one]: the IC50 in assay [1] (setting [3]) came out at 505 nM. Also, in assay [1], the remaining activity at 30 µM was determined as 1.31%. In addition, the Emax at 30 µM in assay [2] (setting [5]) stood at 85.6%. In assay [2], the “Fold selectivity (mGlu3 vs. mGlu5)” value is on record as 14.51. Also, the EC50 in assay [2] (setting [4]) came out at 7330 nM.
Consider `Cc1cnc(N2CCn3nc(CNc4ccc(OC(F)F)cc4F)cc3C2=O)s1` [Compound 137, 2-(((4-(difluoromethoxy)-2-fluorophenyl)amino)methyl)-5-(5-methylthiazol-2-yl)-6,7-dihydropyrazolo[1,5-a]pyrazin-4(5H)-one], for which the IC50 in assay [1] (read-out: rat mGlu3 IC50) was greater than 30000 nM. Also, the 50% effective concentration (EC50) in assay [2] (setting [4]) is greater than 30000 nM.
With `CN(Cc1cc2n(n1)CCN(c1ccc(F)cc1)C2=O)c1ccccc1Cl` [Compound 84, 2-(((2-chlorophenyl)(methyl)amino)methyl)-5-(4-fluorophenyl)-6,7-dihydropyrazolo[1,5-a]pyrazin-4(5H)-one], the IC50 in assay [1] (setting [3]) was 1860 nM; in assay [2] (compound noted as NAM or partial antagonist (PAnt) at mGlu5, glutamate EC80, read-out: rat mGlu5 EC50 or IC50), greater than 10000 nM. Moreover, the remaining activity at 30 µM in assay [1] stood at 0.82%. The Emax at 30 µM in assay [2] (compound noted as NAM or partial antagonist (PAnt) at mGlu5, response at 30 μM as % of maximal glutamate response) worked out at 73.4%. For the same compound, the “Fold selectivity (mGlu3 vs. mGlu5)” value in assay [2] is listed as greater than 5.3.
Consider `COc1cc(F)cc(N2CCn3nc(CNc4ccc(OC(F)F)cc4F)cc3C2=O)c1` [Compound 147, 2-(((4-(difluoromethoxy)-2-fluorophenyl)amino)methyl)-5-(3-fluoro-5-methoxyphenyl)-6,7-dihydropyrazolo[1,5-a]pyrazin-4(5H)-one], for which the half-inhibitory concentration (IC50) in assay [1] (setting [3]) is 1260 nM. Also, the remaining activity at 30 µM in assay [1] was 1.67%. For the same compound, in assay [2], the “Fold selectivity (mGlu3 vs. mGlu5)” value is recorded as greater than 23. The half-maximal effective concentration (EC50) in assay [2] (setting [4]) was greater than 30000 nM.
Take `COc1ccc(N(C)Cc2cc3n(n2)CCN(c2ccccc2C)C3=O)cc1` [Compound 111, 2-(((4-methoxyphenyl)(methyl)amino)methyl)-5-(o-tolyl)-6,7-dihydropyrazolo[1,5-a]pyrazin-4(5H)-one]: the IC50 in assay [1] (setting [3]) was found to be 2000 nM. For the same compound, the remaining activity at 30 µM in assay [1] stood at 0.74%. Further, in assay [2], the “Fold selectivity (mGlu3 vs. mGlu5)” value is listed as greater than 15. The concentration for a half-maximal effect (EC50) in assay [2] (setting [4]) is greater than 30000 nM.
`COc1ccc(N(C)Cc2cc3n(n2)CCN(c2ccc(OC(F)F)cc2)C3=O)cc1` [Compound 123, 5-(4-(difluoromethoxy)phenyl)-2-(((4-methoxyphenyl)(methyl)amino)methyl)-6,7-dihydropyrazolo[1,5-a]pyrazin-4(5H)-one]: in assay [1] (setting [3]), the IC50 worked out at 1030 nM. Also, the remaining activity at 30 µM in assay [1] is 0.3%. In addition, in assay [2], the “Fold selectivity (mGlu3 vs. mGlu5)” value is reported as greater than 29. The EC50 in assay [2] (setting [4]) is greater than 30000 nM.
Take `COc1cccc(N(C)Cc2cc3n(n2)CCN(c2ccc(F)cc2)C3=O)c1` [Compound 88, 5-(4-fluorophenyl)-2-(((3-methoxyphenyl)(methyl)amino)methyl)-6,7-dihydropyrazolo[1,5-a]pyrazin-4(5H)-one]: the IC50 in assay [1] (setting [3]) came to 1020 nM. The remaining activity at 30 µM in assay [1] worked out at 0.55%. Moreover, in assay [2], the “Fold selectivity (mGlu3 vs. mGlu5)” value is greater than 29. Moreover, the EC50 in assay [2] (setting [4]) was greater than 30000 nM.
In the case of `O=C1c2cc(CNc3ccc4c(c3)OC(F)(F)O4)nn2CCN1c1ccc(F)cc1` [Compound 39, 2-(((2,2-difluorobenzo[d][1,3]dioxol-5-yl)amino)methyl)-5-(4-fluorophenyl)-6,7-dihydropyrazolo[1,5-a]pyrazin-4(5H)-one], the half-maximal inhibitory concentration (IC50) in assay [1] (setting [3]) came to 2880 nM. Also, in assay [1], the remaining activity at 30 µM is 1.95%. Moreover, the Emax at 30 µM in assay [2] (setting [5]) was determined as 75.7%. Moreover, the “Fold selectivity (mGlu3 vs. mGlu5)” value in assay [2] is on record as greater than 3.4. The EC50 in assay [2] (setting [4]) was greater than 10000 nM.
